Experimental data taken from PubChem BioAssay AID330 (DTP/NCI, 2004).
Where “and” joins values, the source holds several entries; their conditions need not be identical. Identical values can stand only once. Inconclusive results and toxic doses are left out.

Tested on: P388 leukemia ip, CD2F1 mice, survival T/C
Assay: NCI In Vivo Anticancer Drug Screen. Data for tumor model P388 Leukemia (intraperitoneal) in CD2F1 (CDF1) mice
Conditions: endpoint: median survival time, higher = longer survival
Summary of the method: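 Mice carrying the transplanted tumor received test compound or vehicle. Survival was recorded in each group, and the value is the treated-group measurement divided by that of the vehicle-treated control group.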

[1] = dose: 25.0 mg/kg/injection, schedule: Q01DX009 (ip), vehicle: saline with Tween-80
[2] = dose: 50.0 mg/kg/injection, schedule: Q01DX009 (ip), vehicle: saline with Tween-80
[3] = dose: 100.0 mg/kg/injection, schedule: Q01DX009 (ip), vehicle: saline with Tween-80
[4] = dose: 200.0 mg/kg/injection, schedule: Q01DX009 (ip), vehicle: saline with Tween-80
[5] = dose: 400.0 mg/kg/injection, schedule: Q01DX009 (ip), vehicle: saline with Tween-80
[6] = dose: 25.0 mg/kg/injection, schedule: Q04DX003 (ip), vehicle: saline
[7] = dose: 100.0 mg/kg/injection, schedule: Q04DX003 (ip), vehicle: saline
[8] = dose: 60.0 mg/kg/injection, schedule: Q01DX005 (ip), vehicle: saline with Tween-80
[9] = dose: 120.0 mg/kg/injection, schedule: Q01DX005 (ip), vehicle: saline with Tween-80
[10] = dose: 240.0 mg/kg/injection, schedule: Q01DX005 (ip), vehicle: saline with Tween-80
[11] = dose: 50.0 mg/kg/injection, schedule: Q01DX005 (ip), vehicle: Klucel (hydroxypropylcellulose) (HPC)
[12] = dose: 100.0 mg/kg/injection, schedule: Q01DX005 (ip), vehicle: Klucel (hydroxypropylcellulose) (HPC)
[13] = dose: 200.0 mg/kg/injection, schedule: Q01DX005 (ip), vehicle: Klucel (hydroxypropylcellulose) (HPC)
[14] = dose: 50.0 mg/kg/injection, schedule: Q01DX005 (ip), vehicle: saline with Tween-80
[15] = dose: 100.0 mg/kg/injection, schedule: Q01DX005 (ip), vehicle: saline with Tween-80
[16] = dose: 60.0 mg/kg/injection, schedule: Q01DX005 (ip), vehicle: Klucel (hydroxypropylcellulose) (HPC)
[17] = dose: 120.0 mg/kg/injection, schedule: Q01DX005 (ip), vehicle: Klucel (hydroxypropylcellulose) (HPC)
[18] = dose: 240.0 mg/kg/injection, schedule: Q01DX005 (ip), vehicle: Klucel (hydroxypropylcellulose) (HPC)
[19] = dose: 15.0 mg/kg/injection, schedule: Q01DX005 (ip), vehicle: saline with Tween-80
[20] = dose: 30.0 mg/kg/injection, schedule: Q01DX005 (ip), vehicle: saline with Tween-80

## COc1ccc(C(=O)c2no[n+]([O-])c2C(=O)c2ccc(OC)cc2)cc1
[1]
  T/C: 108 % of control
[2]
  T/C: 104 % of control and 107 % of control
[3]
  T/C: 100 % of control and 106 % of control
[4]
  T/C: 115 % of control
[5]
  T/C: 123 % of control

## CCC(NCC(C)C)NCC(C)C
[6]
  T/C: 100 % of control
dose: 50.0 mg/kg/injection, schedule: Q04DX003 (ip), vehicle: saline
  T/C: 109 % of control
[7]
  T/C: 95 % of control

## N#CCNC=O
dose: 60.0 mg/kg/injection, schedule: Q01DX005 (ip), vehicle: saline
  T/C: 98 % of control
dose: 120.0 mg/kg/injection, schedule: Q01DX005 (ip), vehicle: saline
  T/C: 103 % of control
dose: 240.0 mg/kg/injection, schedule: Q01DX005 (ip), vehicle: saline
  T/C: 100 % of control

## COC(=O)Nc1nc2cc(Cl)c(Cl)cc2[nH]1
[1]
  T/C: 103 % of control and 92 % of control
[2]
  T/C: 105 % of control and 123 % of control and 124 % of control
[3]
  T/C: 111 % of control
[4]
  T/C: 114 % of control
[5]
  T/C: 112 % of control
dose: 600.0 mg/kg/injection, schedule: Q01DX009 (ip), vehicle: saline with Tween-80
  T/C: 119 % of control

## O=[N+]([O-])c1ccccc1N(CCO)CCO
[8]
  T/C: 96 % of control
[9]
  T/C: 99 % of control
[10]
  T/C: 98 % of control

## CS(=O)(=O)[O][Sn]([CH3])([CH3])[O]S(C)(=O)=O
dose: 6.25 mg/kg/injection, schedule: Q04DX003 (ip), vehicle: saline
  T/C: 104 % of control
dose: 12.5 mg/kg/injection, schedule: Q04DX003 (ip), vehicle: saline
  T/C: 109 % of control
[6]
  T/C: 110 % of control

## Cc1ccc2c(c1)Nc1ccc(C)cc1C2(C)C
[11]
  T/C: 104 % of control
[12]
  T/C: 100 % of control
[13]
  T/C: 97 % of control

## O=C1Oc2ccccc2C(=O)C1=Ic1ccccc1
[11]
  T/C: 88 % of control
[12]
  T/C: 94 % of control
[13]
  T/C: 95 % of control

## CN1CC(NC(=O)N(CCCl)N=O)CC2c3cccc4c3c(cn4N=O)CC21 (stereo not drawn)
dose: 50.0 mg/kg/injection, schedule: Q01DX001 (ip), vehicle: Klucel (hydroxypropylcellulose) (HPC)
  T/C: 166 % of control
dose: 100.0 mg/kg/injection, schedule: Q01DX001 (ip), vehicle: Klucel (hydroxypropylcellulose) (HPC)
  T/C: 166 % of control and 201 % of control
dose: 200.0 mg/kg/injection, schedule: Q01DX001 (ip), vehicle: Klucel (hydroxypropylcellulose) (HPC)
  T/C: 166 % of control

## O=C1C(Cl)=C(Nc2ccc3c(c2NC2=C(Cl)C(=O)c4ccccc4C2=O)C(=O)c2ccccc2C3=O)C(=O)c2ccccc21
[11]
  T/C: 97 % of control
[12]
  T/C: 99 % of control

## CCOC(=O)CC1CC2c3cc(OC)c(OC)cc3CCN2CC1CC (stereo not drawn)
dose: 12.5 mg/kg/injection, schedule: Q01DX009 (ip), vehicle: Klucel (hydroxypropylcellulose) (HPC)
  T/C: 108 % of control
dose: 25.0 mg/kg/injection, schedule: Q01DX009 (ip), vehicle: Klucel (hydroxypropylcellulose) (HPC)
  T/C: 114 % of control
dose: 50.0 mg/kg/injection, schedule: Q01DX009 (ip), vehicle: Klucel (hydroxypropylcellulose) (HPC)
  T/C: 100 % of control and 114 % of control

## O=[N+]([O-])c1ccc(SN2CCCCC2)c([N+](=O)[O-])c1
[14]
  T/C: 100 % of control
[15]
  T/C: 100 % of control
dose: 200.0 mg/kg/injection, schedule: Q01DX005 (ip), vehicle: saline with Tween-80
  T/C: 105 % of control

## O=C(O)c1c[nH]c2cc(OCc3ccc4ccccc4c3)ccc2c1=O
[7]
  T/C: 90 % of control
dose: 200.0 mg/kg/injection, schedule: Q04DX003 (ip), vehicle: saline
  T/C: 97 % of control
dose: 400.0 mg/kg/injection, schedule: Q04DX003 (ip), vehicle: saline
  T/C: 87 % of control

## Fc1ccccc1CSc1ncnc2nc[nH]c12
[2]
  T/C: 100 % of control
[3]
  T/C: 100 % of control
dose: 100.0 mg/kg/injection, schedule: Q04DX003 (ip), vehicle: saline with Tween-80
  T/C: 104 % of control
dose: 132.0 mg/kg/injection, schedule: Q04DX003 (ip), vehicle: saline with Tween-80
  T/C: 100 % of control
[4]
  T/C: 100 % of control

## O=C1Nc2ccccc2C1=Nc1ccc2[nH]c3ccccc3c2c1
[16]
  T/C: 92 % of control
[17]
  T/C: 93 % of control
[18]
  T/C: 88 % of control

## O=C(O)CC(=O)NC1c2ccccc2Oc2ccccc21
[11]
  T/C: 94 % of control
[12]
  T/C: 97 % of control
[13]
  T/C: 99 % of control

## COc1cccc(/C=C(\NC(=O)c2ccccc2)c2nc3ccccc3s2)c1
[14]
  T/C: 110 % of control
[15]
  T/C: 116 % of control
[10]
  T/C: 116 % of control

## COC(=O)/C(=C/c1ccc(/C=C(/C(=O)O)c2ccc(OC)cc2)o1)c1ccccc1
[8]
  T/C: 97 % of control
[9]
  T/C: 100 % of control
[10]
  T/C: 90 % of control

## Nc1ccc(Br)cc1N
dose: 50.0 mg/kg/injection, schedule: Q01DX009 (ip), vehicle: distilled water + Tween-80 + alcohol
  T/C: 111 % of control
dose: 50.0 mg/kg/injection, schedule: Q01DX009 (ip), vehicle: other
  T/C: 100 % of control
dose: 50.0 mg/kg/injection, schedule: Q01DX009 (ip), vehicle: saline + Tween-80 + alcohol
  T/C: 95 % of control
dose: 100.0 mg/kg/injection, schedule: Q01DX009 (ip), vehicle: distilled water + Tween-80 + alcohol
  T/C: 120 % of control
dose: 100.0 mg/kg/injection, schedule: Q01DX009 (ip), vehicle: other
  T/C: 98 % of control
dose: 100.0 mg/kg/injection, schedule: Q01DX009 (ip), vehicle: saline + Tween-80 + alcohol
  T/C: 107 % of control
dose: 200.0 mg/kg/injection, schedule: Q01DX009 (ip), vehicle: distilled water + Tween-80 + alcohol
  T/C: 150 % of control
dose: 200.0 mg/kg/injection, schedule: Q01DX009 (ip), vehicle: other
  T/C: 106 % of control
dose: 200.0 mg/kg/injection, schedule: Q01DX009 (ip), vehicle: saline + Tween-80 + alcohol
  T/C: 99 % of control

## COc1cccc2[nH]c(-c3ccccn3)nc12
[2]
  T/C: 95 % of control
[3]
  T/C: 104 % of control
[4]
  T/C: 95 % of control

## Cc1cn(Cc2ccc(Cl)cc2Cl)c(C)n1
[19]
  T/C: 100 % of control
[20]
  T/C: 107 % of control
[8]
  T/C: 100 % of control and 108 % of control

## O=C(O)CC(/C=C\C(=O)C(=O)O)=C\O
dose: 1.56 mg/kg/injection, schedule: Q01DX009 (ip), vehicle: saline
  T/C: 100 % of control
dose: 3.12 mg/kg/injection, schedule: Q01DX009 (ip), vehicle: saline
  T/C: 101 % of control
dose: 6.25 mg/kg/injection, schedule: Q01DX009 (ip), vehicle: saline
  T/C: 100 % of control
dose: 12.5 mg/kg/injection, schedule: Q01DX009 (ip), vehicle: saline
  T/C: 100 % of control and 114 % of control
dose: 25.0 mg/kg/injection, schedule: Q01DX009 (ip), vehicle: saline
  T/C: 100 % of control and 109 % of control
dose: 50.0 mg/kg/injection, schedule: Q01DX009 (ip), vehicle: saline
  T/C: 106 % of control
dose: 100.0 mg/kg/injection, schedule: Q01DX009 (ip), vehicle: saline
  T/C: 112 % of control
dose: 200.0 mg/kg/injection, schedule: Q01DX009 (ip), vehicle: saline
  T/C: 86 % of control

## C1CCC([N-]C2CCCCC2)CC1.C1CCC([N-]C2CCCCC2)CC1.[Cl][Pt+2][Cl]
dose: 100.0 mg/kg/injection, schedule: Q01DX001 (sc), vehicle: other
  T/C: 103 % of control
dose: 200.0 mg/kg/injection, schedule: Q01DX001 (sc), vehicle: other
  T/C: 107 % of control

## C[C@]12C=CC(=O)NC[C@@H]1CC[C@@H]1[C@@H]2CC[C@]2(C)[C@@H](OC(=O)COc3ccc(N(CCCl)CCCl)cc3)CC[C@@H]12
dose: 7.5 mg/kg/injection, schedule: Q01DX005 (ip), vehicle: saline with Tween-80
  T/C: 120 % of control
[19]
  T/C: 120 % of control
[20]
  T/C: 151 % of control
[8]
  T/C: 198 % of control and 255 % of control
[9]
  T/C: 157 % of control

## COC(=O)c1ccc(C(=O)OC)c2nc3cc([N+](=O)[O-])ccc3nc12
dose: 60.0 mg/kg/injection, schedule: Q01DX005 (ip), vehicle: suspension in saline
  T/C: 100 % of control
dose: 120.0 mg/kg/injection, schedule: Q01DX005 (ip), vehicle: suspension in saline
  T/C: 102 % of control

## O=C1OC(C2OC(=O)C(=O)C2C(=O)c2ccccc2)C(C(=O)c2ccccc2)C1=O (stereo not drawn)
[8]
  T/C: 111 % of control
[9]
  T/C: 108 % of control
[10]
  T/C: 108 % of control

## O=C1C2=C(Nc3ccccc3N2)OC1c1ccc2c(c1)OCO2 (stereo not drawn)
[16]
  T/C: 100 % of control
[17]
  T/C: 86 % of control
[18]
  T/C: 89 % of control
